We go through 45 molecules from US20090298786A1, “METHODS OF TREATING VIRAL INFECTIONS WITH ANTHRACYCLINE ANTIBIOTICS” (priority 2007, published 2009).

Each structure is given as a SMILES string. Read-outs that look alike come from different tables or passages of the source.

This assay addresses T1, HCV helicase (helicase domain of NS3 protein) (UniProt P27958).
T1 construct: The helicase domain of NS3 protein was expressed in a baculovirus system in HF insect cell line; fused on or other part: Histidine tag, inferred from the Talon cobalt column purification ('histidine repetitions')
The assay is described as follows: Fluorometric (FRET) antihelicase activity assay. The format is biochemical, hepatitis C virus (HCV). Particulars: concentration inhibiting 50% of helicase activity, 10 nM enzyme pre-incubated 15 min with derivative, unwinding at 30° C. for 60 min. An excerpt: A reaction takes place on a 96- or 384-well microtitration plate and a course of the reaction is observed in real time.
The helicase domain of NS3 protein was expressed in a baculovirus system in HF insect cell line.
In this assay, FAM fluorescence is quenched by fluorescence energy transfer (FRET) to the BHQ molecule, while unwinding of double-stranded DNA structure leads to decrease of FRET phenomenon and increase of FAM fluorescence signal. The assay allows for examining a large number of samples, i.e., different helicase inhibitors at various concentrations and with many repetitions, in standardized conditions. The reaction is conducted in a microtitration plate. The reaction process is observed in real time.
The enzyme (10 nM) was pre-incubated with the tested derivatives dissolved in DMSO (0.005 to 20 μM concentration) without ATP for 15 min at room temperature. The reaction of DNA unwinding was started by addition of ATP and was carried out at 30° C. for 60 min in a Synergy HTi (Biotek) fluorometer. […] Fluorescence was measured every 2 mins.
The enzyme activity was calculated as the initial reaction velocity from the linear part of reaction curve (fluorescence growth as a function of time) using a linear regression method. Inhibition was calculated as comparison of activity of the helicase incubated with inhibitor to activity of the helicase incubated without inhibitor, but with a proper concentration of DMSO, expressed in percent.

T1 sequence (P27958 1027-1657): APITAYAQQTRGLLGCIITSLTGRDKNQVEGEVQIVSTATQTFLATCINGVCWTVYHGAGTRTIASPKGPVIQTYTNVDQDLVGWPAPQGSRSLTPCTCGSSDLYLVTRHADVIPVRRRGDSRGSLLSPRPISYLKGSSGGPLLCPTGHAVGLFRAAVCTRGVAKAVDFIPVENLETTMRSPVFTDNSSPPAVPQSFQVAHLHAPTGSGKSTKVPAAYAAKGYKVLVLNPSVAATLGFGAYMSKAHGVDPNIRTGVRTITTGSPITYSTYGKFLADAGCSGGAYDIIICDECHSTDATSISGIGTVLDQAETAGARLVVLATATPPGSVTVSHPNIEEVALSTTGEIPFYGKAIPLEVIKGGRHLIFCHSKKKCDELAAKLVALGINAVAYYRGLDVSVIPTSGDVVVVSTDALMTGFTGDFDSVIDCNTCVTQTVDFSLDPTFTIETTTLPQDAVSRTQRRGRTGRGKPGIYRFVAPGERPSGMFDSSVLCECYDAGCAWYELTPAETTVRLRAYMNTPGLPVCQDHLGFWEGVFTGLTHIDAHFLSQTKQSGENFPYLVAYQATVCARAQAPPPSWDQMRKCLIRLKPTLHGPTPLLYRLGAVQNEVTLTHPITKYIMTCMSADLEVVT

With `COc1cccc2c1C(=O)c1c(O)c3c(c(O)c1C2=O)CC(O)(C(C)=O)CC3OC1CC(N=CN2CCCC2)C(O)C(C)O1` (stereo not shown) [Derivative 1], the half-maximal inhibitory concentration (IC50) (read-out: IC50) came out at 1.84 µM. Turning to `COc1cccc2c1C(=O)c1c(O)c3c(c(O)c1C2=O)CC(O)(C(C)=O)CC3OC1CC(N=CN2CCOCC2)C(O)C(C)O1` (stereo not shown) [Derivative 3], under “read-out: IC50”, the half-inhibitory concentration (IC50) was found to be 3.17 µM. Consider `COc1cccc2c1C(=O)c1c(O)c3c(c(O)c1C2=O)CC(O)(C(C)=O)CC3OC1CC(N=CN2CCCCC2)C(O)C(C)O1` (stereo not shown) [Derivative 5], for which the IC50 (read-out: IC50) came to 3.5 µM. Still for that read-out and setting: next, `COc1cccc2c1C(=O)c1c(O)c3c(c(O)c1C2=O)CC(O)(C(C)=O)CC3OC1CC(N=CN2CCCCCC2)C(O)C(C)O1` (stereo not shown) [Derivative 7]: 1.33 µM. For `COc1cccc2c1C(=O)c1c(O)c3c(c(O)c1C2=O)CC(O)(C(C)=O)CC3OC1CC(N=CN2CCN(C)CC2)C(O)C(C)O1` (stereo not shown) [Derivative 8], where the note is “read-out: IC50”, the IC50 was 1.96 µM.

Turning to `CCN(C=NC1CC(OC2CC(O)(C(C)=O)Cc3c(O)c4c(c(O)c32)C(=O)c2c(OC)cccc2C4=O)OC(C)C1O)CC` (stereo not shown) [Derivative 12], the 50% inhibitory concentration (IC50) (read-out: IC50) came out at 1.58 µM.

As to `COc1cccc2c1C(=O)c1c(O)c3c(c(O)c1C2=O)CC(O)(C(C)=O)CC3OC1CC(N=C(C)N2CCCC2)C(O)C(C)O1` (stereo not shown) [Derivative 18], the 50% inhibitory concentration (IC50) (read-out: IC50) is 0.41 µM. With `COc1cccc2c1C(=O)c1c(O)c3c(c(O)c1C2=O)CC(O)(C(C)=O)CC3OC1CC(N=C(C)N2CCCCC2)C(O)C(C)O1` (stereo not shown) [Derivative 22], the half-maximal inhibitory concentration (IC50) (read-out: IC50) worked out at 0.7 µM. As for `COc1cccc2c1C(=O)c1c(O)c3c(c(O)c1C2=O)CC(O)(C(C)=O)CC3OC1CC(N=C(C)N2CCN(C)CC2)C(O)C(C)O1` (stereo not shown) [Derivative 25], the half-maximal inhibitory concentration (IC50) (read-out: IC50) amounted to 6.25 µM. The same measure, in the same setting: the figure for `COc1cccc2c1C(=O)c1c(O)c3c(c(O)c1C2=O)CC(O)(C(C)=O)CC3OC1CC(N=C(C)N2CCc3ccccc32)C(O)C(C)O1` (stereo not shown) [Derivative 27] is 11.3 µM; for `COc1cccc2c1C(=O)c1c(O)c3c(c(O)c1C2=O)CC(O)(C(=O)CO)CC3OC1CC(N=CN2CCCC2)C(O)C(C)O1` (stereo not shown) [Derivative 35] it is 0.55 µM. Still for that read-out and setting: the figure for `COc1cccc2c1C(=O)c1c(O)c3c(c(O)c1C2=O)CC(O)(C(=O)CO)CC3OC1CC(N=CN2CCOCC2)C(O)C(C)O1` (stereo not shown) [Derivative 37] is 2.12 µM; for `COc1cccc2c1C(=O)c1c(O)c3c(c(O)c1C2=O)CC(O)(C(=O)CO)CC3OC1CC(N=CN2CCCCC2)C(O)C(C)O1` (stereo not shown) [Derivative 39] it is 2.84 µM. In the case of `COc1cccc2c1C(=O)c1c(O)c3c(c(O)c1C2=O)CC(O)(C(=O)CO)CC3OC1CC(N=CN2CCCCCC2)C(O)C(C)O1` (stereo not shown) [Derivative 41], the IC50 (read-out: IC50) amounted to 1.61 µM. On to `COc1cccc2c1C(=O)c1c(O)c3c(c(O)c1C2=O)CC(O)(C(=O)CO)CC3OC1CC(N=CN2CCN(C)CC2)C(O)C(C)O1` (stereo not shown) [Derivative 42], for which, for the setting “read-out: IC50”, the half-inhibitory concentration (IC50) stood at 0.98 µM. On to `CCN(C=NC1CC(OC2CC(O)(C(=O)CO)Cc3c(O)c4c(c(O)c32)C(=O)c2c(OC)cccc2C4=O)OC(C)C1O)CC` (stereo not shown) [Derivative 46], for which the half-inhibitory concentration (IC50) (read-out: IC50) was found to be 1.32 µM.

Take `COc1cccc2c1C(=O)c1c(O)c3c(c(O)c1C2=O)CC(O)(C(=O)CO)CC3OC1CC(N=C(C)N2CCCC2)C(O)C(C)O1` (stereo not shown) [Derivative 52]: the IC50 (read-out: IC50) came out at 0.5 µM. The same measure, in the same setting: the figure for `COc1cccc2c1C(=O)c1c(O)c3c(c(O)c1C2=O)CC(O)(C(=O)CO)CC3OC1CC(N=C(C)N2CCCCC2)C(O)C(C)O1` (stereo not shown) [Derivative 56] is 3.35 µM; for `COc1cccc2c1C(=O)c1c(O)c3c(c(O)c1C2=O)CC(O)(C(=O)CO)CC3OC1CC(N=C(C)N2CCN(C)CC2)C(O)C(C)O1` (stereo not shown) [Derivative 59] it is 0.42 µM; for `COc1cccc2c1C(=O)c1c(O)c3c(c(O)c1C2=O)CC(O)(C(C)=O)CC3OC1CC(N=CN2CCCC2)C(O)C(C)O1` (stereo not shown) [Derivative 69] it is 1.08 µM. Still for that read-out and setting: the figure for `COc1cccc2c1C(=O)c1c(O)c3c(c(O)c1C2=O)CC(O)(C(C)=O)CC3OC1CC(N=CN2CCOCC2)C(O)C(C)O1` (stereo not shown) [Derivative 71] is 3.13 µM; for `COc1cccc2c1C(=O)c1c(O)c3c(c(O)c1C2=O)CC(O)(C(C)=O)CC3OC1CC(N=CN2CCCCC2)C(O)C(C)O1` (stereo not shown) [Derivative 73] it is 2.39 µM. On to `COc1cccc2c1C(=O)c1c(O)c3c(c(O)c1C2=O)CC(O)(C(C)=O)CC3OC1CC(N=CN2CCN(C)CC2)C(O)C(C)O1` (stereo not shown) [Derivative 76], for which the IC50 was 0.77 µM. In addition, for the setting “read-out: IC50”, the 50% inhibitory concentration (IC50) came out at 0.76 ± 0.21 µM. Regarding `COc1cccc2c1C(=O)c1c(O)c3c(c(O)c1C2=O)CC(O)(C(C)=O)CC3OC1CC(N=CN2CCN(C)CC2)C(O)C(C)O1` (stereo not shown) [Derivative 77], the IC50 (read-out: IC50) was 0.78 ± 0.18 µM. The same measure, in the same setting: the figure for `COc1cccc2c1C(=O)c1c(O)c3c(c(O)c1C2=O)CC(O)(C(C)=O)CC3OC1CC(N=CN2CCc3ccccc32)C(O)C(C)O1` (stereo not shown) [Derivative 78] is 0.45 µM.

Take `CCN(C=NC1CC(OC2CC(O)(C(C)=O)Cc3c(O)c4c(c(O)c32)C(=O)c2c(OC)cccc2C4=O)OC(C)C1O)CC` (stereo not shown) [Derivative 80]: the IC50 (read-out: IC50) worked out at 0.3 µM. In the case of `CCCCN(C=NC1CC(OC2CC(O)(C(C)=O)Cc3c(O)c4c(c(O)c32)C(=O)c2c(OC)cccc2C4=O)OC(C)C1O)CCCC` (stereo not shown) [Derivative 84], the 50% inhibitory concentration (IC50) (read-out: IC50) was found to be 2.05 µM.

Consider `COc1cccc2c1C(=O)c1c(O)c3c(c(O)c1C2=O)CC(O)(C(C)=O)CC3OC1CC(N=C(C)N2CCOCC2)C(O)C(C)O1` (stereo not shown) [Derivative 89], for which the half-inhibitory concentration (IC50) (read-out: IC50) was determined as 0.05 µM. Take `COc1cccc2c1C(=O)c1c(O)c3c(c(O)c1C2=O)CC(O)(C(C)=O)CC3OC1CC(N=C(C)N2CCCCC2)C(O)C(C)O1` (stereo not shown) [Derivative 91]: the IC50 (read-out: IC50) came to 0.03 µM. Turning to `COc1cccc2c1C(=O)c1c(O)c3c(c(O)c1C2=O)CC(O)(C(C)=O)CC3OC1CC(N=C(C)N2CCCCCC2)C(O)C(C)O1` (stereo not shown) [Derivative 93], the concentration for half-maximal inhibition (IC50) (read-out: IC50) was found to be 0.99 µM.

As for `COc1cccc2c1C(=O)c1c(O)c3c(c(O)c1C2=O)CC(O)(C(C)=O)CC3OC1CC(N=C(C)N2CCN(C)CC2)C(O)C(C)O1` (stereo not shown) [Derivative 95], the IC50 (read-out: IC50) is 0.09 ± 0.01 µM.

For `CCN(CC)C(C)=NC1CC(OC2CC(O)(C(C)=O)Cc3c(O)c4c(c(O)c32)C(=O)c2c(OC)cccc2C4=O)OC(C)C1O` (stereo not shown) [Derivative 98], the IC50 (read-out: IC50) came to 0.18 µM. Still for that read-out and setting: next, `CCCN(CCC)C(C)=NC1CC(OC2CC(O)(C(C)=O)Cc3c(O)c4c(c(O)c32)C(=O)c2c(OC)cccc2C4=O)OC(C)C1O` (stereo not shown) [Derivative 100]: 1.9 µM. On to `COc1cccc2c1C(=O)c1c(O)c3c(c(O)c1C2=O)CC(O)(C(=O)CO)CC3OC1CC(N=CN2CCOCC2)C(O)C(C)O1` (stereo not shown) [Derivative 107], for which the IC50 (read-out: IC50) is 0.97 µM. For `COc1cccc2c1C(=O)c1c(O)c3c(c(O)c1C2=O)CC(O)(C(=O)CO)CC3OC1CC(N=CN2CCCCC2)C(O)C(C)O1` (stereo not shown) [Derivative 109], where the note is “read-out: IC50”, the half-maximal inhibitory concentration (IC50) was determined as 0.76 µM. With `COc1cccc2c1C(=O)c1c(O)c3c(c(O)c1C2=O)CC(O)(C(=O)CO)CC3OC1CC(N=CN2CCCCCC2)C(O)C(C)O1` (stereo not shown) [Derivative 111], the half-maximal inhibitory concentration (IC50) (read-out: IC50) is 1.72 µM. Turning to `COc1cccc2c1C(=O)c1c(O)c3c(c(O)c1C2=O)CC(O)(C(=O)CO)CC3OC1CC(N=CN2CCN(C)CC2)C(O)C(C)O1` (stereo not shown) [Derivative 112], the IC50 (read-out: IC50) is 1.53 µM. On the same count and under the same terms, the figure for `COc1cccc2c1C(=O)c1c(O)c3c(c(O)c1C2=O)CC(O)(C(=O)CO)CC3OC1CC(N=CN2CCc3ccccc32)C(O)C(C)O1` (stereo not shown) [Derivative 114] is 0.14 µM; for `CCN(C=NC1CC(OC2CC(O)(C(=O)CO)Cc3c(O)c4c(c(O)c32)C(=O)c2c(OC)cccc2C4=O)OC(C)C1O)CC` (stereo not shown) [Derivative 116] it is 2.17 µM.

Take `CCCN(C=NC1CC(OC2CC(O)(C(=O)CO)Cc3c(O)c4c(c(O)c32)C(=O)c2c(OC)cccc2C4=O)OC(C)C1O)CCC` (stereo not shown) [Derivative 118]: the IC50 (read-out: IC50) worked out at 2.21 µM. Turning to `COc1cccc2c1C(=O)c1c(O)c3c(c(O)c1C2=O)CC(O)(C(=O)CO)CC3OC1CC(N=CN(C)C(C)c2ccccc2)C(O)C(C)O1` (stereo not shown) [Derivative 122], the concentration for half-maximal inhibition (IC50) (read-out: IC50) was 2.53 µM.

As to `COc1cccc2c1C(=O)c1c(O)c3c(c(O)c1C2=O)CC(O)(C(=O)CO)CC3OC1CC(N=C(C)N2CCCC2)C(O)C(C)O1` (stereo not shown) [Derivative 123], for the setting “read-out: IC50”, the IC50 worked out at 0.31 µM.

On to `COc1cccc2c1C(=O)c1c(O)c3c(c(O)c1C2=O)CC(O)(C(=O)CO)CC3OC1CC(N=C(C)N2CCCCC2)C(O)C(C)O1` (stereo not shown) [Derivative 127], for which the half-maximal inhibitory concentration (IC50) (read-out: IC50) amounted to 0.22 µM. On the same count and under the same terms, next, `COc1cccc2c1C(=O)c1c(O)c3c(c(O)c1C2=O)CC(O)(C(=O)CO)CC3OC1CC(N=C(C)N2CCN(C)CC2)C(O)C(C)O1` (stereo not shown) [Derivative 131]: 0.13 µM. As to `CCN(CC)C(C)=NC1CC(OC2CC(O)(C(=O)CO)Cc3c(O)c4c(c(O)c32)C(=O)c2c(OC)cccc2C4=O)OC(C)C1O` (stereo not shown) [Derivative 135], the half-maximal inhibitory concentration (IC50) (read-out: IC50) is 1.24 µM.

Usually IC50 stands for the midpoint of a concentration-inhibition curve.
